In article PMC12392461, “Beyond Estrogenicity: A Comparative Assessment of Bisphenol A and Its Alternatives in In Vitro Assays Questions Safety of Replacements” (Environmental Science & Technology, 2025):
Like-named read-outs stand apart in the source and are kept apart here.

Assays:
SH-SY5Y cells = test: cells; conditions: for EC10: Homo sapiens, SH-SY5Y; for EC10, linear: linear model; for Specificity ratio (SRbaseline) SRNOI: against baseline cytotoxicity; for Relative effect potency REPNOI: relative to BPA;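 for Relative effect potency REPNOI: EC10 of BPA divided by EC10 of the test compound so values above 1 mean more potent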;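 for Specificity ratio (SRbaseline) SRNOI: ratio of predicted baseline cytotoxicity IC10 to the neurite outgrowth inhibition EC10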
Description: (§1) All bioassay media components and the ERα-UAS-bla GripTite and PPARγ-UAS-bla cells were obtained from Thermo Fisher Scientific (Waltham, MA, USA). AREc32 reporter gene cells based on MCF7 were provided by C. Roland Wolf (Cancer Research UK); AhR CALUX cells (H4L7.5c2 derived from H4IIe) were provided by Michael Denison (UC Davis, USA); and SH-SY5Y cells were purchased from Sigma-Aldrich.
(§2) Cell culture conditions and bioassay protocols including response detection are provided in Text S2.1–2.4 and Table S3. − Cell viability was determined from cell confluency using an IncuCyte S3 Live-Cell Analysis System (Sartorius AG, Essen, Germany) before and after exposure, except for SH-SY5Y cells (live–dead staining with Nuclear Green LcS1 and propidium iodide, Abcam, UK). For metabolic activation experiments, cell viability was assessed using the ToxBLAzer DualScreen Kit (Thermo Fisher Scientific) to capture the remaining toxicity in ERα-UAS-bla GripTite after treatment with the aCYP catalyst (details in Text S2.4).
(§3) For ARE, the concentration that triggered an induction ratio of 1.5 (ECIR1.5) was used as the benchmark value, as detailed in Text S2.5. IC10 values also served as a threshold for data analysis in all assays; only concentrations below IC10 were considered when deriving EC10 or ECIR1.5. […]
(§4) S2: Cell culture and bioassays
(§5) S2.1: Cell Culturing Conditions
(§6) All suppliers and sources are given in detail in SI-Excel S3. The bioassay media for the different assays were prepared as follows: Assay medium for ER alpha-UAS-bla GripTite (ERα) and PPAR gamma-UAS-bla 293H (PPARγ) was prepared with 98% Opti-MEM, supplemented with 2% charcoal-stripped FBS, and 100 U/mL penicillin-streptomycin. MitoOxTox and AhR assay medium was comprised of 90% DMEM with GlutaMAX, supplemented with 10% FBS, and 100 U/mL penicillin-streptomycin. Neurotoxicity assay medium consisted of the neurobasal […]
(§7) (1 picture or pasted object on this page, not shown here) […]
(§8) medium, supplemented with 2% B-27 Supplement and 2 mM GlutaMAX Supplement. SH - SY5Y cells were differentiated with 10 µM all-trans retinoic acid prior to the assay.
(§9) S2.2: Cell Seeding and Incubation. For all bioassays, cell suspensions in the respective assay medium were dispensed into each well of 384-well plates using a MultiFlo Dispenser (Biotek, (now Agilent), Winooski, VT, U.S.). After seeding, the plates were incubated at 37° C and 5% CO₂ for […]. The final cell densities and plate types were as follows: Black poly-D-lysine coated 384-well plates (Product No. 354663, Corning Inc., NYC, U.S.) were used for PPARγ:
(§10) 6500 cells/well, ERα: 5000 cells/well. White 384-well plates with a clear bottom (Product No.
(§11) 781098, Greiner, Kremsmünster, Austria) were utilized for the MitoOxTox assay: 2650

[1] = tested on: ERα-UAS-bla GripTite cells
Description: as §2, with “S2.4). […]” for “S2.4).”
The TK-Ratio method was used to evaluate the impact of abiotic CYP oxidation on the potency of tested compounds. […]
For experiments with the preceding aCYP activation, ERα cell viability was additionally calculated from the readout of the ToxBLAzer reagent. The ToxBLAzer assay was conducted following the manufacturer's instructions (Thermo Fisher, Waltham, MA, U.S.).13 Fluorescence intensity was recorded at the start of the assay ( Fwavelength(0h)) and after a 2-hour incubation at […]
eq. S11 for normalization.
Cell viability = F665nm(2h, sample)-F665nm(0h, average cell-free) (S11) F665nm(2h, average unexposed)-F665nm(0h, average cell-free) […]
the specific endpoint to avoid artifacts from cytotoxicity burst. 15
S2.5: Concentration-response curves (CRCs)
To avoid bias from cytotoxicity burst at higher concentrations, all concentrations exceeding the IC10 for cytotoxicity were excluded in the CRC modeling of effects but otherwise cytotoxicity and effects were fitted with the same model equations (response stands for cytotoxicity or effect). For ERα, AhR, ARE and PPARγ preferably a linear model was fitted to the linear portion of CRC up to maximum 30% effect (eq. S12),16 but in some cases it was necessary to choose a sigmoidal log-concentration-response model, specifically a log-logistic model (eq. S13), to derive effect concentrations and cytotoxicity. […]
This was done using the
AutomatedBioassayScreening19 published by Braun et al.,20 which also included an algorithm to choose the best model between eq. S12 and eq. S13.
Response (%) = slope × C (S12) […]
logEC =logEC − 1 ∙log (max−min − 100%) (S14)

[2] = tested on: Antioxidant response element; test: MitoOxTox: oxidative stress response in AREc32; conditions: for EC10, linear: linear model fit
Description: as §1, §2, §3, §4, §5, §6, §7, §8, §9, §10, §11

[3] = read-out: EC10, linear transformed
[4] = Table S10, TKcytotoxicity-Ratio
[5] = Bioassay ARE, dosing range all, log-logistic model fit
[6] = NOI bioassay, dosing range all, log-logistic model
[7] = Arec32, read-out: EC10, linear transformed
[8] = Table S11, TKcytotoxicity-Ratio
[9] = against experimental cytotoxicity

Row | Compound | EC10 (SH-SY5Y cells; read-out: EC10, NOI) [M] | EC10 (SH-SY5Y cells; read-out: EC10, NOI (M)) [M] | EC10 (SH-SY5Y cells; read-out: EC10, linear) [M] | EC10 (SH-SY5Y cells; [3]) [M] | EC10 (SH-SY5Y cells; read-out: logEC10) [M] | TKcytotoxicity [1, 4] | EC10, linear ([2]; Bioassay ARE, dosing range all) | logEC10 [2, 5] | logEC10 (SH-SY5Y cells; [6]) | EC10, linear (SH-SY5Y cells; NOI bioassay, dosing range all) | Specificity ratio (SRbaseline) SRNOI (SH-SY5Y cells) | Relative effect potency REPNOI (SH-SY5Y cells) | other results
1 | Oc1ccc(C2(c3ccc(O)cc3)CCCCC2)cc1 [BPZ, 1,1'-Bis(4-hydroxyphenyl)cyclohexane] | 3.05e-05 | 3.05e-05 | 3.52e-05 | 4.31e-05 | 3.02e-05 | 0.53 |  |  |  |  |  |  | 
2 | CC(C)(c1ccc(O)c(-c2ccccc2)c1)c1ccc(O)c(-c2ccccc2)c1 [BPPH, 2,2-Bis(2-hydroxy-5-biphenylyl)propane] |  |  | 9.84e-06 | 2.12e-05 |  | 0.11 | no effect | no effect | no effect |  |  |  | 
3 | Oc1ccc(Cc2ccc(O)cc2)cc1 [BPF, Bis(4-hydroxyphenyl)methane] |  |  |  | 0.000697 |  | 0.75 | no effect | masked by cytotoxicity | no effect | no effect |  |  | EC10 [2, 7]: 1470 µM; TKcytotoxicity [1, 8]: 0.44
4 | CC(C)(c1ccc(OCC2CO2)cc1)c1ccc(OCC2CO2)cc1 (stereo not shown) [BADGE, Bisphenol A diglycidyl ether] | 3.81e-05 | 3.81e-05 | 3.69e-05 | 4.5e-05 | 3.8e-05 |  | no effect | no effect |  |  | 0.48 | 1.33 | oxidative stress response (ARE activation) [2]: lacked any oxidative stress response; Specificity ratio (SRcytotoxicity) SRNOI (SH-SY5Y cells; [9]): 1.50
5 | CC(C)CC(C)(c1ccc(O)cc1)c1ccc(O)cc1 [BP-MIBK, 4,4'-(1,3-Dimethylbutylidene)diphenol] |  |  |  | 5.05e-05 |  |  | no effect | no effect | no effect | no effect |  |  | TKcytotoxicity ([1]; human): 0.48
6 | CC(C)(c1cc(Br)c(O)c(Br)c1)c1cc(Br)c(O)c(Br)c1 [TBBPA, 3,3',5,5'-Tetrabromobisphenol A] |  |  |  |  |  | 0.52 | no effect |  |  | no effect |  |  | logEC10 [2]: no effect; logEC10 (SH-SY5Y cells): no effect
7 | Cc1cc(Cc2cc(C)c(O)c(C)c2)cc(C)c1O [TMBPF, Bis(3,5-dimethyl-4-hydroxyphenyl)methane] | 4.28e-06 | 4.28e-06 | 5.06e-06 | 5.49e-06 | 4.27e-06 | 0.35 | no effect | no effect |  |  | 2.18 | 11.87 | Specificity ratio (SRcytotoxicity) SRNOI (SH-SY5Y cells; [9]): 2.97
8 | CC(C)(c1ccc(O)cc1)c1ccc(O)cc1 [BPA, 4,4'-(Propane-2,2-diyl)diphenol, reference compound] | 5.08e-05 | 5.08e-05 | 7.16e-05 | 7.63e-05 | 5.13e-05 | 1.13 | no effect | masked by cytotoxicity |  |  | 0.40 | 1.00 | oxidative stress response (ARE activation) [2]: did not induce ARE; EC10 [2, 7]: 1510 µM; Specificity ratio (SRcytotoxicity) SRNOI (SH-SY5Y cells; human, 24 h): 4.68; SR (neurite outgrowth inhibition) (SH-SY5Y cells; specificity ratio): < 10; TKcytotoxicity (TK-Ratio for cytotoxicity) ([1]; IC10 before/after aCYP oxidation): ≤ 2; TKcytotoxicity [1, 8]: 0.63
9 | Oc1ccc(Sc2ccc(O)cc2)cc1 [BPT, 4,4'-Thiodiphenol] |  |  |  |  |  | 1.35 |  | masked by cytotoxicity | no effect | no effect |  |  | EC10 ([2]; Arec32, read-out: EC10, linear): 85.6 µM; EC10 [2, 7]: 1500 µM; TKcytotoxicity [1, 8]: 1.00
10 | CC1(C)[C@H](O)C(C)(C)[C@H]1O [t-TMCD, trans-2,2,4,4-Tetramethyl-1,3-cyclobutanediol] | 0.00415 | 0.00415 |  |  |  | 1.74 |  |  |  |  | 0.24 | 0.0122 | 
11 | O=S(=O)(c1ccc(O)cc1)c1ccc(O)cc1 [BPS, 4,4'-Sulfonyldiphenol] |  |  |  | 0.000411 |  |  | no effect | no effect | no effect | no effect |  |  | 
12 | CC1(C)[C@H](O)C(C)(C)[C@H]1O [Trans TMCD] |  |  | 0.00531 | 0.00415 | 0.00417 |  | no effect | no effect |  |  |  |  | 
13 | CC1(C)C(O)C(C)(C)C1O (racemic) [r-TMCD, 2,2,4,4-Tetramethyl-1,3-cyclobutanediol (racemate)] | 0.00599 | 0.00599 | 0.00494 | 0.00599 | 0.00603 |  | no effect | no effect |  |  | 0.17 | 0.00848 | 
